Results taken from article PMC10004187 (Molecules, 2023).

Experiments:
[1] = molecular target: T1, butyrylcholinesterase (BuChE) (Homo sapiens, UniProt P06276); details: for Butyrylcholinesterase (BuChE) Inhibition %Inhibition: given for compounds with <50% inhibition, test concentration not given
[2] = tested on: Vero cell lines (normal kidney epithelial cells); assay: SRB cytotoxicity assay against Vero cell line; assay type: cell-based; details: initial screening
Method: To investigate the cytotoxicity of potent compounds (8a, 8c, 8g, and 9i), an SRB assay was performed against Vero cell lines (normal kidney epithelial cells). The total protein generated when cells were treated with putative anticancer drugs was assessed using a very precise […] technique. […] It can readily connect with cells that have been fixed with trichloroacetic acid (TCA). A bright color is produced by the SRB dye when it binds solely to intracellular proteins, and the color is proportional to the quantity of protein present in the cell.

[3] = molecular target: T1, butyrylcholinesterase (BuChE); assay: biochemical

T1 sequence (P06276 29-602): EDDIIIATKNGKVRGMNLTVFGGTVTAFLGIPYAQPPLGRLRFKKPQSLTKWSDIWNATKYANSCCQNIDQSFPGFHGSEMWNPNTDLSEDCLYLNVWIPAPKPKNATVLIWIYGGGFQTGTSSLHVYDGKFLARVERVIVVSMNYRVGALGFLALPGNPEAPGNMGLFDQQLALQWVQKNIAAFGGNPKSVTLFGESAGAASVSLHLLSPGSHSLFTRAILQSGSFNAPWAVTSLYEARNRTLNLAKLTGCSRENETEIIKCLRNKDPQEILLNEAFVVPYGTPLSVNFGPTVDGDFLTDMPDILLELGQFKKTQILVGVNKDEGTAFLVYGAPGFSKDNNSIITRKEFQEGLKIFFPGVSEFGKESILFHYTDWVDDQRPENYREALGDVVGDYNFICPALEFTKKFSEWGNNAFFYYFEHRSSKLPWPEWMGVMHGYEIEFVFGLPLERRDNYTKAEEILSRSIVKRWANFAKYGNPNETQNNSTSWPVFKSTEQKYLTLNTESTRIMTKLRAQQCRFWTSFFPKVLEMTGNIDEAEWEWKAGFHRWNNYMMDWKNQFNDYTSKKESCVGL

Structure (SMILES) | Butyrylcholinesterase (BuChE) Inhibition %Inhibition [1] | further results
Cc1ccc2nc(N3CCCCC3)c(C=NNC(=O)c3ccccc3Cl)cc2c1 [Compound 8f, 2-Chloro-N′-((6-methyl-2-(piperidin-1-yl)quinolin-3-yl)methylene)benzohydrazide] | 15% | –
COc1ccc(C(=O)NN=Cc2cc3cc(C)ccc3nc2N2CCCCC2)cc1 [Compound 8l, 4-Methoxy-N′-((6-methyl-2-(piperidin-1-yl)quinolin-3-yl)methylene)benzohydrazide] | 15% | –
Cc1ccc2nc(N3CCCCC3)c(C=NNC(=O)c3ccc(Cl)cc3)cc2c1 [Compound 8h, 4-Chloro-N′-((6-methyl-2-(piperidin-1-yl)quinolin-3-yl)methylene)benzohydrazide] | 34% | –
Cc1cccc2cc(C=NNC(=O)c3ccc(Cl)cc3)c(N3CCCCC3)nc12 [Compound 9f, 4-Chloro-N′-((8-methyl-2-(piperidin-1-yl)quinolin-3-yl)methylene)benzohydrazide] | 36% | –
COc1cccc(C(=O)NN=Cc2cc3cccc(C)c3nc2N2CCCCC2)c1 [Compound 9i, 3-Methoxy-N′-((8-methyl-2-(piperidin-1-yl)quinolin-3-yl)methylene)benzohydrazide] | 27% | inhibition of Vero cells (toxicity towards normal kidney cells) [2]: less than 22%
COc1cccc(C(=O)NN=Cc2cc3cc(C)ccc3nc2N2CCCCC2)c1 [Compound 8k, 3-Methoxy-N′-((6-methyl-2-(piperidin-1-yl)quinolin-3-yl)methylene)benzohydrazide] | 28% | –
Cc1ccc2nc(N3CCCCC3)c(C=NNC(=O)c3ccccc3)cc2c1 [Compound 8a, N′-((6-methyl-2-(piperidin-1-yl)quinolin-3-yl)methylene)benzohydrazide] | – | IC50 [3]: 4.64 ± 0.43 µM; inhibition of Vero cells (toxicity towards normal kidney cells) [2]: less than 22%
COc1ccccc1C(=O)NN=Cc1cc2cc(C)ccc2nc1N1CCCCC1 [Compound 8j, 2-Methoxy-N′-((6-methyl-2-(piperidin-1-yl)quinolin-3-yl)methylene)benzohydrazide] | 30% | –
Cc1cccc2cc(C=NNC(=O)c3ccccc3Cl)c(N3CCCCC3)nc12 [Compound 9d, 2-Chloro-N′-((8-methyl-2-(piperidin-1-yl)quinolin-3-yl)methylene)benzohydrazide] | 38% | –
Cc1cccc2cc(C=NNC(=O)c3cccc(Cl)c3)c(N3CCCCC3)nc12 [Compound 9e, 3-Chloro-N′-((8-methyl-2-(piperidin-1-yl)quinolin-3-yl)methylene)benzohydrazide] | 40% | –
Cc1cccc2cc(C=NNC(=O)c3cccc([N+](=O)[O-])c3)c(N3CCCCC3)nc12 [Compound 9b, N′-((8-methyl-2-(piperidin-1-yl)quinolin-3-yl)methylene)-3-nitrobenzohydrazide] | 27% | –
Cc1ccc2nc(N3CCCCC3)c(C=NNC(=O)c3ccc([N+](=O)[O-])cc3)cc2c1 [Compound 8c, N′-((6-methyl-2-(piperidin-1-yl)quinolin-3-yl)methylene)-4-nitrobenzohydrazide] | – | IC50 [3]: 1.74 ± 0.03 µM; inhibition of Vero cells (toxicity towards normal kidney cells) [2]: less than 22%
COc1ccccc1C(=O)NN=Cc1cc2cccc(C)c2nc1N1CCCCC1 [Compound 9h, 2-Methoxy-N′-((8-methyl-2-(piperidin-1-yl)quinolin-3-yl)methylene)benzohydrazide] | 33% | –
Cc1ccc2nc(N3CCCCC3)c(C=NNC(=O)c3ccc(N)cc3)cc2c1 [Compound 8e, 4-Amino-N′-((6-methyl-2-(piperidin-1-yl)quinolin-3-yl)methylene)benzohydrazide] | 23% | –
Cc1ccc2nc(N3CCCCC3)c(C=NNC(=O)c3cccc(Cl)c3)cc2c1 [Compound 8g, 3-Chloro-N′-((6-methyl-2-(piperidin-1-yl)quinolin-3-yl)methylene)benzohydrazide] | – | IC50 [3]: 1.31 ± 0.05 µM; inhibition of Vero cells (toxicity towards normal kidney cells) [2]: less than 22%
Cc1ccc2nc(N3CCCCC3)c(C=NNC(=O)c3cccc([N+](=O)[O-])c3)cc2c1 [Compound 8b, N′-((6-methyl-2-(piperidin-1-yl)quinolin-3-yl)methylene)-3-nitrobenzohydrazide] | – | IC50 [3]: 4.71 ± 0.45 µM; BuChE inhibition ability, fold reduction relative to 8g ([1]; Cl exchanged for NO2, vs lead 8g): 3 folds
Cc1ccc2nc(N3CCCCC3)c(C=NNC(=O)c3ccccc3N)cc2c1 [Compound 8d, 2-Amino-N′-((6-methyl-2-(piperidin-1-yl)quinolin-3-yl)methylene)benzohydrazide] | 21% | –
Cc1ccc2nc(N3CCCCC3)c(C=NNC(=O)c3ccc(Cl)cc3Cl)cc2c1 [Compound 8i, 2,4-Dichloro-N′-((6-methyl-2-(piperidin-1-yl)quinolin-3-yl)methylene)benzohydrazide] | 39% | –
Cc1cccc2cc(C=NNC(=O)c3ccc([N+](=O)[O-])cc3)c(N3CCCCC3)nc12 [Compound 9c, N′-((8-methyl-2-(piperidin-1-yl)quinolin-3-yl)methylene)-4-nitrobenzohydrazide] | 32% | –
COc1ccc(C(=O)NN=Cc2cc3cccc(C)c3nc2N2CCCCC2)cc1 [Compound 9j, 4-Methoxy-N′-((8-methyl-2-(piperidin-1-yl)quinolin-3-yl)methylene)benzohydrazide] | 38% | –
Cc1ccc2nc(N3CCCCC3)c(C=NNC(=O)c3ccccc3O)cc2c1 [Compound 8m, 2-Hydroxy-N′-((6-methyl-2-(piperidin-1-yl)quinolin-3-yl)methylene)benzohydrazide] | 13% | –
Cc1cccc2cc(C=NNC(=O)c3ccccc3)c(N3CCCCC3)nc12 [Compound 9a, N′-((8-methyl-2-(piperidin-1-yl)quinolin-3-yl)methylene)benzohydrazide] | 32% | –
Cc1cccc2cc(C=NNC(=O)c3ccc(Cl)cc3Cl)c(N3CCCCC3)nc12 [Compound 9g, 2,4-Dichloro-N′-((8-methyl-2-(piperidin-1-yl)quinolin-3-yl)methylene)benzohydrazide] | 32% | –
